Assay results published in ChEMBL document CHEMBL1201862, “PubChem BioAssay data set” (2004).
Active and inactive are the calls of the source. Cut-off read from the data, not from the text of the source, for most assays here: actives have a measured EC50 and inactives only a lower limit.

Columns and labels:
H4 = experiment: Luminescence Cell-Based Dose Response HTS to Identify Activators of 5'UTR Stem-Loop Driven Prion Protein mRNA Translation in H4 Neuroglioblastoma Cells. [Related pubchem assays: 1829 (Project Summary), 1814 (Primary HTS)]; assay type: functional; conditions: Homo sapiens
[1] = viability of uninfected HEp-2 cells – cell-based, HTS, cytotoxicity control for RSV inhibitor project, dose response (AID 2410); assay type: functional; conditions: human respiratory syncytial virus
[2] = Luminescence Cell-Based Dose Confirmation HTS to Identify Activators of 5'UTR Stem-Loop Driven Alpha-Synuclein mRNA Translation in H4 Neuroglioblastoma Cells. [Related pubchem assays: 1829 (Project Summary), 1814 (Primary HTS)]; assay type: functional
[3] = Luminescence Cell-Based Dose Response HTS to Identify Activators of Luciferase Translation or Activity in H4 […] Cells. [Related pubchem assays: 1829 (Project Summary), 1814 (Primary HTS)]; assay type: functional
[4] = target: T1, Zinc finger protein mex-5 (Caenorhabditis elegans, UniProt Q9XUB2); experiment: potency of MEX-5 RNA-binding blockers – biochemical, C. elegans, fluorescence polarization, dose response (AID 1960)
T1 sequence (Q9XUB2 whole entry): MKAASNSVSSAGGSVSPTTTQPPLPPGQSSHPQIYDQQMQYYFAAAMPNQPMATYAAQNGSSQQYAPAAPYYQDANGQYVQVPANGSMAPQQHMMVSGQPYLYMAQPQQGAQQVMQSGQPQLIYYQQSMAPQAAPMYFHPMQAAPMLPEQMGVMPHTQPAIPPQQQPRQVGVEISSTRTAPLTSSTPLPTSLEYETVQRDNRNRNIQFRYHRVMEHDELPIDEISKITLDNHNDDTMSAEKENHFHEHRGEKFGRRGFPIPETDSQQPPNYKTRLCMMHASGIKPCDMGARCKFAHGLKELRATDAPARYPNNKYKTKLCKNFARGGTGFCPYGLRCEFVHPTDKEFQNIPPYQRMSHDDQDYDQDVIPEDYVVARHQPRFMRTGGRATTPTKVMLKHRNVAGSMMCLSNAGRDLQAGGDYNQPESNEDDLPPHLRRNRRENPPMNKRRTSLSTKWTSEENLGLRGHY

[5] = target: T2, RNA-binding protein pos-1 (Caenorhabditis elegans, UniProt G5EF15); experiment: disruptors of C. elegans POS-1 RNA interaction – biochemical, fluorescence polarization, dose response (AID 1964);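 note: purified POS-1 fused to maltose binding protein made in E. coli; potency of compounds blocking POS-1 binding to fluorescent RNA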
T2 sequence (G5EF15 whole entry): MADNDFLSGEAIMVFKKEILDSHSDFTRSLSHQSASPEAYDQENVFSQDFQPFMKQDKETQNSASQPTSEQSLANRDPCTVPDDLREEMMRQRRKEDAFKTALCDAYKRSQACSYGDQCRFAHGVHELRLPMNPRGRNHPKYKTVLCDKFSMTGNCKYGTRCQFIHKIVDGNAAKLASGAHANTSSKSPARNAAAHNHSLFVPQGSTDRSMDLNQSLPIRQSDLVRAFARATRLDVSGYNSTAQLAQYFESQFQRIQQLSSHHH

[6] = Trypanosoma cruzi growth suppression in host cells – NIH3T3 host cells, beta-gal luminescence, confirmation (AID 2044); assay type: functional, cell-based;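 note: intracellular parasites grown in NIH/3T3 mouse fibroblasts as host cells; luminescent beta-galactosidase reporter signal from transgenic T. cruzi replicating inside host cells; inhibitors lower the luminescence signal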
[7] = NIH3T3 cell viability loss – ATP luminescence, mouse fibroblasts, counter-screen, dose response (AID 2010); assay type: functional, cell-based;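 note: cells exposed to compound for about 90 hours before reading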
[8] = target: FAD-linked sulfhydryl oxidase ALR (Homo sapiens, UniProt P55789); experiment: ALR-catalysed DTT oxidation blockers – biochemical, H2O2 detection, luminescence, cherry-pick, dose response (AID 493248)
Sequence of FAD-linked sulfhydryl oxidase ALR (P55789 whole entry): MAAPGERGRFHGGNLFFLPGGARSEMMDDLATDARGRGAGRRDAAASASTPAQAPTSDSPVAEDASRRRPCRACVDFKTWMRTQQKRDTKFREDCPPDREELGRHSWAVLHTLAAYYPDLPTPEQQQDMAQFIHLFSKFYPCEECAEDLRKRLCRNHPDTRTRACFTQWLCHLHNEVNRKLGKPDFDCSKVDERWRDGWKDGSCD

[9] = target: Luciferin 4-monooxygenase (Photinus pyralis, UniProt P08659); experiment: inhibition of purified Photinus pyralis luciferase – biochemical, luminescence, dose response (AID 1891)
Sequence of Luciferin 4-monooxygenase (P08659 whole entry): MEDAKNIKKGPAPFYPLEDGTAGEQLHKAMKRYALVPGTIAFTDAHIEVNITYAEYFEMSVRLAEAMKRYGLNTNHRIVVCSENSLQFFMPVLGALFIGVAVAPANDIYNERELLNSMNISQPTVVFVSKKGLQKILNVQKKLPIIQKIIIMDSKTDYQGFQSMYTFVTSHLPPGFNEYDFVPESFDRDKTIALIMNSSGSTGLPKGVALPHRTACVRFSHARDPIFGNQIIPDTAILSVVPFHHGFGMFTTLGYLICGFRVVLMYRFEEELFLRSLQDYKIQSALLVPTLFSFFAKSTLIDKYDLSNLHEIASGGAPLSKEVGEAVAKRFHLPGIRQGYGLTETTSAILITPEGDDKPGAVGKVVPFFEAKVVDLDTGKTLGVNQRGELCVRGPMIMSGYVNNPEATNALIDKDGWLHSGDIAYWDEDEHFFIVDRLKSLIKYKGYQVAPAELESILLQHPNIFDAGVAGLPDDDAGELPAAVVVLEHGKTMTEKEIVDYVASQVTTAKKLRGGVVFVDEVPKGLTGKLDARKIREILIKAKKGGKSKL

[10] = Luminescence Cell-Based Dose Confirmation HTS to Identify Inhibitors of Platelet Dense Granule Release. [Related pubchem assays: 1663 (Primary HTS), 1678 (Summary of Project)]; assay type: functional
H9c2 = experiment: cells; assay type: functional, cell-based; conditions: Rattus norvegicus, H9c2, Myocardium;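 note: confirmatory concentration-response retest of ultra-high-throughput screening hits for modulation of myocardial damage; cell death induced by hydrogen peroxide oxidative stress; compound pretreatment for 60 min then peroxide exposure for 2 h; potency is for protecting the cells against peroxide damage rather than for killing them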
Protein RecA = target: T3, Protein RecA (Mycobacterium tuberculosis, UniProt P9WHJ3); experiment: Fluorescence Cell-Free Homogeneous Dose Retest to Identify Inhibitors of RecA-Intein Splicing Activity. [Related pubchem assays (depositor defined):AID2097, AID2223, AID489010, AID492950]; assay type: functional
T3 sequence (P9WHJ3 whole entry): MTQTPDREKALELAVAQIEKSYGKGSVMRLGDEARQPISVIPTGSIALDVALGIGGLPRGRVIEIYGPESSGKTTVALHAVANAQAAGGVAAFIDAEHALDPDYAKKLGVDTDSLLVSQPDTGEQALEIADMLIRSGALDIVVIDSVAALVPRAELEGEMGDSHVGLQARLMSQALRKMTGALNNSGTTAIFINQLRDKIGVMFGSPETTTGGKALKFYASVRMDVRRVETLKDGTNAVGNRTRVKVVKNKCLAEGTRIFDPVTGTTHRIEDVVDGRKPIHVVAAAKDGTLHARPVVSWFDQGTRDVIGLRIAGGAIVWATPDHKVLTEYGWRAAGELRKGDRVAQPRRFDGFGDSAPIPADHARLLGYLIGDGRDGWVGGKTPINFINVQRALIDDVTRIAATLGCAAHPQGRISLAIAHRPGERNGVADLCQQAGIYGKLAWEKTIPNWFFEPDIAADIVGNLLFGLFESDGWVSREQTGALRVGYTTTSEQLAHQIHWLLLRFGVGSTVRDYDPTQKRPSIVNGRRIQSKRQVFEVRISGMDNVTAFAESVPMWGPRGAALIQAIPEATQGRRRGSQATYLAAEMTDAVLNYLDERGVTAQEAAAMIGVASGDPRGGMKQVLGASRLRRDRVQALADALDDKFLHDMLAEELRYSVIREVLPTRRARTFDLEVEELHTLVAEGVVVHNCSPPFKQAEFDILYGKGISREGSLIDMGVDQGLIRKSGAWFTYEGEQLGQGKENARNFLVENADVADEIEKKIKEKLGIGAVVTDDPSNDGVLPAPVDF

[11] = target: T4, Replicative DNA helicase DnaB (Mycobacterium tuberculosis, UniProt P9WMR3); experiment: DnaB intein splicing inhibitors, dose response, biochemical, cell-free fluorescence (AID 449749); assay type: functional
T4 sequence (P9WMR3 whole entry): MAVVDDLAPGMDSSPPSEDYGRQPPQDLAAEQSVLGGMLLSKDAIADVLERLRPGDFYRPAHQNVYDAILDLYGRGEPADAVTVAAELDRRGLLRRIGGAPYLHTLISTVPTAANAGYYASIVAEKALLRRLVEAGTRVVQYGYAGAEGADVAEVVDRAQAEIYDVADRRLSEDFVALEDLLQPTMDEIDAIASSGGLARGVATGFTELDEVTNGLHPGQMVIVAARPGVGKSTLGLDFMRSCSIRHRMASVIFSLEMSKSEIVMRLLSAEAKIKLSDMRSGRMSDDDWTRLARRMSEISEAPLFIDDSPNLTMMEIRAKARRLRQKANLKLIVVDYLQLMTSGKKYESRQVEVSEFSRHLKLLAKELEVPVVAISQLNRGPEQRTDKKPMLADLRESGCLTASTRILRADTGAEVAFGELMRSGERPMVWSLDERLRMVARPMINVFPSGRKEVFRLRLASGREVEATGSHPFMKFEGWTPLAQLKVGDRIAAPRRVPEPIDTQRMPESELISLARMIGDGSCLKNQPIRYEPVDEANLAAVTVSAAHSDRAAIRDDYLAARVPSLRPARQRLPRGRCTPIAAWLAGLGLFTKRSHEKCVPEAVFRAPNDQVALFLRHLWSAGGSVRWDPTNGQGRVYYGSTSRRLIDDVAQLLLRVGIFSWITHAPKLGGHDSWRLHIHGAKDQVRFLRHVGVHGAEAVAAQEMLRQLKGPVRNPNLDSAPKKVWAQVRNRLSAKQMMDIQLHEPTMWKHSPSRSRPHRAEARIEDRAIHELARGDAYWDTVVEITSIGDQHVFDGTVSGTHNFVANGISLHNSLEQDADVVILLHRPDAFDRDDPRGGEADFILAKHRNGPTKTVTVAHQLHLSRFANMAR

Fatty acid synthase [12] = target: T5, Fatty acid synthase (Homo sapiens, UniProt P49327); experiment: inhibition of human FAS-TE enzyme activity – biochemical, kinetic fluorescence intensity, dose response (AID 624326); assay type: functional;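 note: rate of fluorescence rise from hydrolysis of a fluorogenic O-methyl fluorescein ester substrate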
T5 sequence (P49327 whole entry): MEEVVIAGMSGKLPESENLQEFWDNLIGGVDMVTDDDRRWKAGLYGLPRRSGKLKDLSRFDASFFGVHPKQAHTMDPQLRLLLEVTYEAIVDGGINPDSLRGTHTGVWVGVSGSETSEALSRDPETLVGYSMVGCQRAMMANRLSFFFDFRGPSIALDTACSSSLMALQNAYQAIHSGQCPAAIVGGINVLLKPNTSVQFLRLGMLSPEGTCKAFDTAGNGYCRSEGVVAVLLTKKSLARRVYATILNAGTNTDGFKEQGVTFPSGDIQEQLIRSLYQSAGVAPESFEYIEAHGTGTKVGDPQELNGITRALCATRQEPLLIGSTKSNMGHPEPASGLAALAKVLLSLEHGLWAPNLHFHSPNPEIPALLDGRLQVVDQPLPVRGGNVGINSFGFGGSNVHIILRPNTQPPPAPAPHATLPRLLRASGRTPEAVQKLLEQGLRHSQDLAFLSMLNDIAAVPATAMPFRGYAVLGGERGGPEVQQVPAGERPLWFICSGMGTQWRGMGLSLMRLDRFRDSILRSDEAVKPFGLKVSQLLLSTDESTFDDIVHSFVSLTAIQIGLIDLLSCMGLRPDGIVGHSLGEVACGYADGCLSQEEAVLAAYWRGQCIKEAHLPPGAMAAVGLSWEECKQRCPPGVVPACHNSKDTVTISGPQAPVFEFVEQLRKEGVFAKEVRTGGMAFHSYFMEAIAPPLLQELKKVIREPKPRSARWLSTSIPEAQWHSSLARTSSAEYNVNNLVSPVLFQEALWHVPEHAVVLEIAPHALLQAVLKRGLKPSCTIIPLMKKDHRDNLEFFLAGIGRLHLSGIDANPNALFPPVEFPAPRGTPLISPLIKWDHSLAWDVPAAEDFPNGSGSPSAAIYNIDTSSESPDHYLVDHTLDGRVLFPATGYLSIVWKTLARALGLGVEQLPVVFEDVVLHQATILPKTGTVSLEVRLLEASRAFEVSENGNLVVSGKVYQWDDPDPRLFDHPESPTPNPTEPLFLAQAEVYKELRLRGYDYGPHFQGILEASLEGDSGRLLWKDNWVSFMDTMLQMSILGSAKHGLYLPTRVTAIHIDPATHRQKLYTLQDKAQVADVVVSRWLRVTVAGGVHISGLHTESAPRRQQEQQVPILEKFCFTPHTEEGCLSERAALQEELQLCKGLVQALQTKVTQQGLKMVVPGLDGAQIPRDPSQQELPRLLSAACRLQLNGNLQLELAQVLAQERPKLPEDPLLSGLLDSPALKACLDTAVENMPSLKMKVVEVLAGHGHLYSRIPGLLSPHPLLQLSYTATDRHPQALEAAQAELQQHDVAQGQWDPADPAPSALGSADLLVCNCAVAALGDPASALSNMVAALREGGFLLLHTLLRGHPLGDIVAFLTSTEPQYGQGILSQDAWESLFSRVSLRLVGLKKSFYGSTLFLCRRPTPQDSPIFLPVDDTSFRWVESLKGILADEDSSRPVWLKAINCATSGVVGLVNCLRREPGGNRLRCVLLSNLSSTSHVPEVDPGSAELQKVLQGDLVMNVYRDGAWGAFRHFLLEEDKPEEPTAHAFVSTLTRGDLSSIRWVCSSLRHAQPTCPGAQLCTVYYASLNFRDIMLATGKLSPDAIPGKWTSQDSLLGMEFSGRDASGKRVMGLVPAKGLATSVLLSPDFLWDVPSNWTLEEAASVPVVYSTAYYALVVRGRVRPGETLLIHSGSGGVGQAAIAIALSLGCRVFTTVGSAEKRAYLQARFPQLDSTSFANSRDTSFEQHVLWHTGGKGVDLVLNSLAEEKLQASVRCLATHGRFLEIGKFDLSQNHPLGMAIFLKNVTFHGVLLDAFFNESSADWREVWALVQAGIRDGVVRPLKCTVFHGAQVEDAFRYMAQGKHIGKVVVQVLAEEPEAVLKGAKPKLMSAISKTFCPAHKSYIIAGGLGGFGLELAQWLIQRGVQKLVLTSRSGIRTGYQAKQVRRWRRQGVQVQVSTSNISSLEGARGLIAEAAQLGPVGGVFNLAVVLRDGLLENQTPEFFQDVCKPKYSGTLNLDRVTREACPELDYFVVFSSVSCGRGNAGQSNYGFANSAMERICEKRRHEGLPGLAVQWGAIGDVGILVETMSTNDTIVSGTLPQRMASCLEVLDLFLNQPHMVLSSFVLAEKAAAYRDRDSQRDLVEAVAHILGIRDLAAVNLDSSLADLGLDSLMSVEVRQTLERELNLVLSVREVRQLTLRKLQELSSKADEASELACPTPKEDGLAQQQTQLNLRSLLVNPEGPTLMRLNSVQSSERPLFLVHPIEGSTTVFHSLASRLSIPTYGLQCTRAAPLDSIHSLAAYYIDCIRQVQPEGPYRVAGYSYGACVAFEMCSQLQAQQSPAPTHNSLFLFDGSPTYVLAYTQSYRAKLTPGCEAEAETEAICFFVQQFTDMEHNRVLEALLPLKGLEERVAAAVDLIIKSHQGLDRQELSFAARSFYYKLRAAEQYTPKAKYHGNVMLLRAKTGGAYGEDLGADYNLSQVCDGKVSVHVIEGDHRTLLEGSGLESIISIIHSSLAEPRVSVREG

Fatty acid synthase [13] = target: T5, Fatty acid synthase; experiment: inhibition of human FAS-TE enzyme activity – biochemical, endpoint fluorescence intensity, uHTS hits, dose response (AID 624327); assay type: functional;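 note: fluorescence from hydrolysis of an O-methyl fluorescein acyl ester substrate by the enzyme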

Row | Compound | EC50 (H4) | EC50 [2] | EC50 [3] | also measured
1 | Cc1ccc(-n2c(C)nc3c(cnn3-c3ccc(C)c(C)c3)c2=O)cc1C | 43.9 µM (active) | 10.2 µM (active) | 8.78 µM (active) | CC50 [1]: 48.5 µM (active)
2 | COc1ccccc1N1CC(C(=O)Nc2nnc(SCC(=O)NC(C)C)s2)CC1=O (stereo unspecified) | – | – | – | EC50 [4]: > 300 µM (not active); EC50 [5]: > 300 µM (not active)
3 | O=C(N=Nc1c(O)n(C2OC(=O)c3ccccc32)c2ccccc12)c1ccco1 (stereo unspecified) | 15 µM (active) | 11.5 µM (active) | 11.4 µM (active) | –
4 | O=C(Nc1cccc(Cl)c1)c1ccc2ncsc2c1 | 34.6 µM (active) | 4.28 µM (active) | 91.3 µM (active) | –
5 | COc1cc(C2NC(S)=NC(C)=C2C(=O)Nc2ccc(C)cc2)ccc1O (stereo unspecified) | 21.8 µM (active) | 15.1 µM (active) | 22.4 µM (active) | –
6 | Cc1c2c(nc3ccccc13)CCC(C(C)(C)C)C2 (stereo unspecified) | 12.7 µM (active) | 26.6 µM (active) | 4.26 µM (active) | CC50 [1]: 44.4 µM (active); EC50 [6]: 3.67 µM (active); EC50 [7]: > 60 µM (not active)
7 | CN(C)c1ccc(NC(=O)CN2CCN(S(=O)(=O)c3cc(Cl)ccc3Cl)CC2)cc1 | – | – | – | AC50 [8]: 2.31 µM (active); EC50 [9]: > 112 µM (not active); EC50 [10]: > 112 µM (not active)
8 | COc1cccc(N2C(=O)/C(=C/c3ccc(C)o3)C(=O)NC2=S)c1 | – | – | – | EC50 [4]: 44.5 µM (active); EC50 [5]: > 300 µM (not active)
9 | CCc1nc(N2CCN(C(=O)c3ccco3)CC2)c2oc3ccccc3c2n1 | – | – | – | IC50 (H9c2): > 79 µM (inactive); EC50 [9]: > 112 µM (not active); EC50 [10]: > 112 µM (not active)
10 | O=C(COc1ccccc1[N+](=O)[O-])Nc1ccc(NC(=O)c2cc3ccccc3o2)cc1 | > 120 µM (not active) | > 120 µM (not active) | > 120 µM (not active) | –
11 | CN1C(=O)C(=Cc2c[nH]c3ccc(Br)cc23)C(=O)N(C)C1=O | – | – | – | EC50 [4]: > 300 µM (not active); EC50 [5]: > 300 µM (not active)
12 | N#CC1=C(N)C(C#N)(C#N)C(c2cccnc2)C2CN(C(=O)OCc3ccccc3)CC=C12 (stereo unspecified) | – | – | – | EC50 (Protein RecA): 2.59 µM (active); EC50 [9]: > 112 µM (not active); AC50 [11]: > 380 µM (inactive); EC50 [10]: 15.6 µM (active)
13 | CN1CCc2c(sc3nc(SCC(=O)NCc4ccco4)n(-c4ccccc4)c(=O)c23)C1 | 25.5 µM (active) | 17.9 µM (active) | 10.2 µM (active) | –
14 | CCOc1cccc2cc(C(=O)NCCC3=CCCCC3)c(=O)oc12 | 25 µM (active) | 7.15 µM (active) | > 120 µM (not active) | IC50 (Fatty acid synthase [12]): 4.15 µM (active); IC50 (Fatty acid synthase [13]): 3.95 µM (active)
15 | CCOC(=O)C1=C(Nc2ccccc2)S/C(=C\c2cn(CC(=O)N3CCCC3)c3ccccc23)C1=O | – | – | – | EC50 [4]: 26.2 µM (active); EC50 [5]: 47.5 µM (active)
16 | c1ccc(-c2ccc(-c3n[nH]cc3CN3CCC(N4CCSCC4)CC3)cc2)cc1 | 12.4 µM (active) | 14.4 µM (active) | 15.8 µM (active) | –
